target: T1, human capsaicin receptor (Homo sapiens, UniProt Q8NER1); assay: Calcium mobilization assay, determination of antagonist activity (Example 6); assay type: cell-based; conditions: 50% decrease in fluorescence response of cells expressing human capsaicin receptor exposed to capsaicin
T1 construct: pBK-CMV expression construct encoding the full length human capsaicin receptor; expressed in transfected cells
Experimental: A cDNA encoding full length human capsaicin receptor (SEQ ID NO:1, 2 or 3 of U.S. Pat. No. 6,482,611) was subcloned in the plasmid pBK-CMV (Stratagene, La Jolla, Calif.) for recombinant expression in mammalian cells.
Human embryonic kidney (HEK293) cells were transfected with the pBK-CMV expression construct encoding the full length human capsaicin receptor using standard methods. The transfected cells were selected for two weeks in media containing G418 (400 μg/ml) to obtain a pool of stably transfected cells. Independent clones were isolated from this pool by limiting dilution to obtain clonal stable cell lines for use in subsequent experiments.
Cells transfected with expression plasmids (as described in Example 4) and thereby expressing human capsaicin receptor are seeded and grown to 70-90% confluency in FALCON black-walled, clear-bottomed 96-well plates (#3904, BECTON-DICKINSON, Franklin Lakes, N.J.). The culture medium is emptied from the 96 well plates and FLUO-3 AM calcium sensitive dye (Molecular Probes, Eugene, Oreg.) is added to each well (dye solution: 1 mg FLUO-3 AM, 440 μL DMSO and 440 μl 20% pluronic acid in DMSO, diluted 1:250 in Krebs-Ringer HEPES (KRH) buffer (25 mM HEPES, 5 mM KCl, 0.96 mM NaH2PO4, 1 mM MgSO4, 2 mM CaCl2, 5 mM glucose, 1 mM probenecid, pH 7.4), 50 μl diluted solution per well). Plates are covered with aluminum foil and incubated at 37° C. for 1-2 hours in an environment containing 5% CO2. After the incubation, the dye is emptied from the plates, and the cells are washed once with KRH buffer, and resuspended in KRH buffer.
To measure the ability of a test compound to agonize or antagonize a calcium mobilization response in cells expressing capsaicin receptors to capsaicin or other vanilloid agonist, the EC50 of the agonist capsaicin is first determined. An additional 20 μl of KRH buffer and 1 μl DMSO is added to each well of cells, prepared as described above. 100 μl capsaicin in KRH buffer is automatically transferred by the FLIPR instrument to each well. Capsaicin-induced calcium mobilization is monitored using either FLUOROSKAN ASCENT (Labsystems; Franklin, Mass.) or FLIPR (fluorometric imaging plate reader system; Molecular Devices, Sunnyvale, Calif.) instruments. Data obtained between 30 and 60 seconds after agonist application are used to generate an 8-point concentration response curve, with final capsaicin concentrations of 1 nM to 3 μM. KALEIDAGRAPH software (Synergy Software, Reading, Pa.) is used to fit the data to the equation: y=a*(1/(1+(b/x)^c)) to determine the 50% excitatory concentration (EC50) for the response. In this equation, y is the maximum fluorescence signal, x is the concentration of the agonist or antagonist (in this case, capsaicin), a is the Emax, b corresponds to the EC50 value and c is the Hill coefficient. Determination of Agonist Activity
Test compounds are dissolved in DMSO, diluted in 20 μl KRH buffer so that the final concentration of test compounds in the assay well is between 1 μM and 5 μM, and added to cells prepared as described above. The 96 well plates containing prepared cells and test compounds are incubated in the dark, at room temperature for 0.5 to 6 hours. It is important that the incubation not continue beyond 6 hours. Just prior to determining the fluorescence response, 100 μl capsaicin in KRH buffer at twice the EC50 concentration determined as described above is automatically added by the FLIPR instrument to each well of the 96 well plate for a final sample volume of 200 μl and a final capsaicin concentration equal to the EC50. The final concentration of test compounds in the assay wells is between 1 μM and […]. […] The concentration of antagonist required to provide a 50% decrease, relative to the response observed in the presence of capsaicin and without antagonist, is the IC50 for the antagonist, and is preferably below 1 micromolar, 100 nanomolar, 10 nanomolar or 1 nanomolar.

T1 sequence (Q8NER1 whole entry): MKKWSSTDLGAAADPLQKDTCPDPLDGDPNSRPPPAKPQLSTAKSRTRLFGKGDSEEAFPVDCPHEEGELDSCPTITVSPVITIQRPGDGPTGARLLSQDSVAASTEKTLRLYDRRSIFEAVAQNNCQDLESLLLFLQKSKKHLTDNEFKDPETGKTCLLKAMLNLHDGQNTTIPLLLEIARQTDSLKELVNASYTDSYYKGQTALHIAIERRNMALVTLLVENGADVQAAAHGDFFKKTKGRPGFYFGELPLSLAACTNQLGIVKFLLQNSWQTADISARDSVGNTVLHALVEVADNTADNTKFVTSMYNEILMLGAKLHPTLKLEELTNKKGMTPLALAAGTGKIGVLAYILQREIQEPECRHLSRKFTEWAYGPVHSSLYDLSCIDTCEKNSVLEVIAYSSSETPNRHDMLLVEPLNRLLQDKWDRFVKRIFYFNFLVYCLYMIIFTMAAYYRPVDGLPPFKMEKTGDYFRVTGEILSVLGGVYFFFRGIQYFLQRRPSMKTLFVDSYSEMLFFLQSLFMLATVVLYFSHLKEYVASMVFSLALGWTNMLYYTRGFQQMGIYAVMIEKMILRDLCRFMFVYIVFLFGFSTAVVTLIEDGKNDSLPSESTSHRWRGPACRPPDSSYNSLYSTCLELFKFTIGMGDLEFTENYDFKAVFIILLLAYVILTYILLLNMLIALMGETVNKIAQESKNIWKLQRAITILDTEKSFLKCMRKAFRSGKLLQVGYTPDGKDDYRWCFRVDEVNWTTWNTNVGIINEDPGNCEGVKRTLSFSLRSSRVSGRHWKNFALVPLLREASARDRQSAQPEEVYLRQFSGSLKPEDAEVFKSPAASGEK

Row | Structure (SMILES) | IC50
1 | CCN(CC)c1nc(Nc2cccc(F)c2)nc(N2CCN(c3ncccc3Cl)CC2)n1 [Compound 71, 6-[4-(3-Chloro-pyridin-2-yl)-piperazin-1-yl]-N,N-diethyl-N′-(3-fluoro-phenyl)-[1,3,5]triazine-2,4-diamine] | ≤ 1 µM
2 | CCN(CC)c1nc(Nc2cccc(OC)c2)nc(N2CCN(c3ncccc3Cl)CC2)n1 [Compound 93, 6-[4-(3-Chloro-pyridin-2-yl)-piperazin-1-yl]-N,N-diethyl-N′-(3-methoxy-phenyl)-[1,3,5]triazine-2,4-diamine] | ≤ 1 µM
3 | CCN(CC)c1nc(Nc2ccc(F)cc2)nc(N2CCN(c3ccccn3)CC2)n1 [Compound 94, N,N-Diethyl-N′-(4-fluoro-phenyl)-6-(4-pyridin-2-yl-piperazin-1-yl)-[1,3,5]triazine-2,4-diamine] | ≤ 1 µM
4 | CCCN(C)c1nc(Nc2cccc(F)c2)nc(N2CCN(c3ncccc3Cl)CC2)n1 [Compound 74, 6-[4-(3-Chloro-pyridin-2-yl)-piperazin-1-yl]-N-(3-fluoro-phenyl)-N′-methyl-N′-propyl-[1,3,5]triazine-2,4-diamine] | ≤ 1 µM
5 | Fc1ccc(Nc2nc(N3CCOCC3)nc(N3CCN(c4ncccc4Cl)CC3)n2)cc1 [Compound 61, {4-[4-(3-Chloro-pyridin-2-yl)-piperazin-1-yl]-6-morpholin-4-yl-[1,3,5]triazin-2-yl}-(4-fluoro-phenyl)-amine] | ≤ 1 µM
6 | Fc1ccc(Nc2nc(N3CCOCC3)cc(N3CCN(c4ncccc4C(F)(F)F)CC3)n2)cc1 [Compound 83, (4-Fluoro-phenyl)-{4-morpholin-4-yl-6-[4-(3-trifluoromethyl-pyridin-2-yl)-piperazin-1-yl]-pyrimidin-2-yl}-amine] | ≤ 1 µM
7 | Clc1cccnc1N1CCN(c2nc(Nc3ccccc3)nc(N3CCOCC3)n2)CC1 [Compound 97, {4-[4-(3-Chloro-pyridin-2-yl)-piperazin-1-yl]-6-morpholin-4-yl-[1,3,5]triazin-2-yl}-phenyl-amine] | ≤ 1 µM
8 | CCN(CC)c1nc(Nc2ccc(C#N)cc2)nc(N2CCN(c3ncccc3Cl)CC2)n1 [Compound 107, 4-{4-[4-(3-Chloro-pyridin-2-yl)-piperazin-1-yl]-6-diethylamino-[1,3,5]triazin-2-ylamino}-benzonitrile] | ≤ 1 µM
9 | CCN(CC)c1nc(Nc2cccc(Cl)c2)nc(N2CCN(c3ncccc3Cl)CC2)n1 [Compound 92, N-(3-Chloro-phenyl)-6-[4-(3-chloro-pyridin-2-yl)-piperazin-1-yl]-N′,N′-diethyl-[1,3,5]triazine-2,4-diamine] | ≤ 1 µM
10 | CN(C)c1nc(Nc2cccc(F)c2)nc(N2CCN(c3ncccc3Cl)CC2)n1 [Compound 76, 6-[4-(3-Chloro-pyridin-2-yl)-piperazin-1-yl]-N-(3-fluoro-phenyl)-N′,N′-dimethyl-[1,3,5]triazine-2,4-diamine] | ≤ 1 µM
11 | Cc1ccc(Nc2nc(N3CCOCC3)nc(N3CCN(c4ncccc4C(F)(F)F)CC3)n2)cc1 [Compound 64, {4-Morpholin-4-yl-6-[4-(3-trifluoromethyl-pyridin-2-yl)-piperazin-1-yl]-[1,3,5]triazin-2-yl}-p-tolyl-amine] | ≤ 1 µM
12 | Fc1ccc(Nc2cc(N3CCN(c4ccccn4)CC3)nc(N3CCOCC3)n2)cc1 [Compound 98, (4-Fluoro-phenyl)-[2-morpholin-4-yl-6-(4-pyridin-2-yl-piperazin-1-yl)-pyrimidin-4-yl]-amine] | ≤ 1 µM

Next, values leading:

Row | IC50 | Structure (SMILES)
13 | ≤ 1 µM | CCCNc1nc(Nc2ccc(C(F)(C(F)(F)F)C(F)(F)F)cc2)nc(N2CCN(c3ncccc3Cl)C[C@H]2C)n1 [Compound 25, 6-[4-(3-Chloro-pyridin-2-yl)-2-methyl-piperazin-1-yl]-N-propyl-N′-[4-(1,2,2,2-tetrafluoro-1-trifluoromethyl-ethyl)-phenyl]-[1,3,5]triazine-2,4-diamine (R)]
14 | ≤ 1 µM | CC1CCCN1c1nc(Nc2cccc(F)c2)nc(N2CCN(c3ncccc3Cl)CC2)n1 (stereo not drawn) [Compound 77, [4-[4-(3-Chloro-pyridin-2-yl)-piperazin-1-yl]-6-(2-methyl-pyrrolidin-1-yl)-[1,3,5]triazin-2-yl]-(3-fluoro-phenyl)-amine]
15 | ≤ 1 µM | CC(C)CNc1nc(Nc2ccc(C(F)(C(F)(F)F)C(F)(F)F)cc2)nc(N2CCN(c3ncccc3Cl)C[C@H]2C)n1 [Compound 26, 6-[4-(3-Chloro-pyridin-2-yl)-2-methyl-piperazin-1-yl]-N-isobutyl-N′-[4-(1,2,2,2-tetrafluoro-1-trifluoromethyl-ethyl)-phenyl]-[1,3,5]triazine-2,4-diamine (R)]
16 | ≤ 1 µM | C[C@@H]1CN(c2ncccc2Cl)CCN1c1nc(Cl)nc(Nc2ccc(C(F)(C(F)(F)F)C(F)(F)F)cc2)n1 [Compound 24, {4-Chloro-6-[4-(3-chloro-pyridin-2-yl)-2-methyl-piperazin-1-yl]-[1,3,5]triazin-2-yl}-[4-(1,2,2,2-tetrafluoro-1-trifluoromethyl-ethyl)-phenyl]-amine (R)]
17 | ≤ 1 µM | CC(C)N(C)c1nc(Nc2ccc(C(F)(F)F)cc2)nc(N2CCN(c3ncccc3Cl)CC2)n1 [Compound 49, 6-[4-(3-Chloro-pyridin-2-yl)-piperazin-1-yl]-N-isopropyl-N-methyl-N′-(4-trifluoromethyl-phenyl)-[1,3,5]triazine-2,4-diamine]
18 | ≤ 1 µM | C[C@@H]1CN(c2ncccc2Cl)CCN1c1nc(Nc2ccc(C(F)(F)F)cc2)nc(OCc2ccccc2C(F)(F)F)n1 [Compound 8, [4-[4-(3-Chloro-pyridin-2-yl)-2-methyl-piperazin-1-yl]-6-(2-trifluoromethyl-benzyloxy)-[1,3,5]triazin-2-yl]-(4-trifluoromethyl-phenyl)-amine (R)]
19 | ≤ 1 µM | C[C@@H]1CN(c2ncccc2Cl)CCN1c1nc(Nc2cccc(F)c2)nc(N2CCOCC2)n1 (stereo in doubt) [Compound 104, {4-[4-(3-Chloro-pyridin-2-yl)-2-methyl-piperazin-1-yl]-6-morpholin-4-yl-[1,3,5]triazin-2-yl}-(3-fluoro-phenyl)-amine]
20 | ≤ 1 µM | COc1ccccc1N1CCN(c2nc(Nc3ccc(C(C)(C)C)cc3)nc(OCc3ccccc3C(F)(F)F)n2)CC1 [Compound 12, (4-tert-Butyl-phenyl)-[4-[4-(2-methoxy-phenyl)-piperazin-1-yl]-6-(2-trifluoromethyl-benzyloxy)-[1,3,5]triazin-2-yl]-amine]
21 | ≤ 1 µM | CCCCNc1nc(Nc2ccc(C(F)(F)F)cc2)nc(N2CCN(c3ncccc3Cl)C[C@H]2C)n1 [Compound 19, N-Butyl-6-[4-(3-chloro-pyridin-2-yl)-2-methyl-piperazin-1-yl]-N′-(4-trifluoromethyl-phenyl)-[1,3,5]triazine-2,4-diamine (R)]
22 | ≤ 1 µM | CCN(CC)c1nc(Nc2ccc(F)c(F)c2)nc(N2CCN(c3ncccc3C(F)(F)F)C[C@H]2C)n1 [Compound 99, N-(3,4-Difluoro-phenyl)-N′,N′-diethyl-6-[2-methyl-4-(3-trifluoromethyl-pyridin-2-yl)-piperazin-1-yl]-[1,3,5]triazine-2,4-diamine (R)]
23 | ≤ 1 µM | C[C@@H]1CN(c2ncccc2Cl)CCN1c1nc(Cl)cc(Nc2ccc(C(F)(F)F)cc2)n1 [Compound 17, {6-Chloro-2-[4-(3-chloro-pyridin-2-yl)-2-methyl-piperazin-1-yl]-pyrimidin-4-yl}-(4-trifluoromethyl-phenyl)-amine (R)]
24 | ≤ 1 µM | CCN(CC)c1nc(Nc2ccc(F)cc2)nc(N2CCN(c3ncccc3Cl)CC2)n1 [Compound 90, 6-[4-(3-Chloro-pyridin-2-yl)-piperazin-1-yl]-N,N-diethyl-N′-(4-fluoro-phenyl)-[1,3,5]triazine-2,4-diamine]
